Biological target: HSD17B13 (Homo sapiens (Human), UniProt Q7Z5P4)
Assay: LC/MS estrone detection assay: conversion of estradiol to estrone by HSD17B13
Type: biochemical
Settings: 4 μM estradiol, 6 mM NAD+, 30 nM HSD17B13 enzyme (E. coli expressed His-tagged), 2 hours at 26.5° C.
How it was run: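 His-tagged E. coli-expressed HSD17B13 (30 nM) with 4 μM estradiol and 6 mM NAD+ in 1 M potassium phosphate pH 7.4, 0.5% DMSO, 2 h at 26.5° C. Estrone and estradiol quantified by LC-MS/MS after MeCN quench with D4-estrone internal standard; activity as % of uninhibited enzyme, IC50 by four-parameter fit, duplicates.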

Sequence of HSD17B13 (Q7Z5P4 20-300): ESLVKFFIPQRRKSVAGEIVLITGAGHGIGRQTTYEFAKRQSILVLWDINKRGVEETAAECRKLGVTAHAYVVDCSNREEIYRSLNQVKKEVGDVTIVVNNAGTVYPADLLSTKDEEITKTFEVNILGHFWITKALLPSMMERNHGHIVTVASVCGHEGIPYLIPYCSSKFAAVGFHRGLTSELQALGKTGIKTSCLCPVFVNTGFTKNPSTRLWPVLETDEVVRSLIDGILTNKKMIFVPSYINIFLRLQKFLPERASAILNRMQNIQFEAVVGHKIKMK

| SMILES | IC50 |
| --- | --- |
| Cc1ccc(NC(=O)c2cc(Cl)c(O)c(Cl)c2)c2c(=O)n(Cc3cccnc3C(F)(F)F)c(C)nc12 [Example 142, 3,5-dichloro-N-(2,8-dimethyl-4-oxo-3-((2-(trifluoromethyl)pyridin-3-yl)methyl)-3,4-dihydroquinazolin-5-yl)-4-hydroxybenzamide] | 100 to 500 nM |
| O=C(Nc1cccc2ncn(Cc3ncccc3Cl)c(=O)c12)c1cc(Cl)c(O)c(Cl)c1 [Example 143, 3,5-dichloro-N-(3-((3-chloropyridin-2-yl)methyl)-4-oxo-3,4-dihydroquinazolin-5-yl)-4-hydroxybenzamide] | ≤ 100 nM |
| O=C(N[C@H]1CCCC[C@@H]1C(=O)NCc1ccccc1OC(F)(F)F)c1cc(Cl)c(O)c(Cl)n1 [Example 144, 4,6-dichloro-5-hydroxy-N-((1S, 2S)-2-((2-(trifluoromethoxy)benzyl)carbamoyl)cyclohexyl)picolinamide] | > 10000 nM |
| O=C(N[C@@H]1CCCC[C@H]1C(=O)NCc1ccccc1OC(F)(F)F)c1cc(Cl)c(O)c(Cl)n1 [Example 145, 4,6-dichloro-5-hydroxy-N-((1R, 2R)-2-((2-(trifluoromethoxy)benzyl)carbamoyl)cyclohexyl)picolinamide] | 1000 to 10000 nM |
| Cc1ccc(NC(=O)c2cc(Cl)c(O)c(Cl)n2)c2c(=O)n(Cc3cccnc3C(F)(F)F)c(C)nc12 [Example 147, 4,6-dichloro-N-(2,8-dimethyl-4-oxo-3-((2-(trifluoromethyl)pyridin-3-yl)methyl)-3,4-dihydroquinazolin-5-yl)-5-hydroxypicolinamide] | 100 to 500 nM |
| O=C(Nc1cccc2ncn(Cc3ncccc3Cl)c(=O)c12)c1cc(Cl)c(O)c(Cl)n1 [Example 148, 4,6-dichloro-N-(3-((3-chloropyridin-2-yl)methyl)-4-oxo-3,4-dihydroquinazolin-5-yl)-5-hydroxypicolinamide] | 100 to 500 nM |
| Cc1ccc(NC(=O)c2cc(Cl)c(O)c(Cl)c2)c2c(=O)n(Cc3ccccc3OC(F)(F)F)c(C(F)F)nc12 [Example 149, 3,5-dichloro-N-(2-(difluoromethyl)-8-methyl-4-oxo-3-(2-(trifluoromethoxy)benzyl)-3,4-dihydroquinazolin-5-yl)-4-hydroxybenzamide] | ≤ 100 nM |
| Cc1ccc(NC(=O)c2cc(Cl)c(O)c(Cl)c2)c2c(=O)n(Cc3ccccc3C(F)(F)F)c(C)nc12 [Example 151, 3,5-dichloro-N-(2,8-dimethyl-4-oxo-3-(2-(trifluoromethyl)benzyl)-3,4-dihydroquinazolin-5-yl)-4-hydroxybenzamide] | ≤ 100 nM |
| Cc1ccc(NC(=O)c2cc(Cl)c(O)c(Cl)c2)c2c(=O)n(Cc3ccccc3OC(F)(F)F)c(CF)nc12 [Example 152, 3,5-dichloro-N-(2-(fluoromethyl)-8-methyl-4-oxo-3-(2-(trifluoromethoxy)benzyl)-3,4-dihydroquinazolin-5-yl)-4-hydroxybenzamide] | 500 to 1000 nM |
| Cc1nc2c(F)ccc(NC(=O)c3cc(Cl)c(O)c(Cl)c3)c2c(=O)n1Cc1ncccc1C(F)(F)F [Example 154, 3,5-dichloro-N-(8-fluoro-2-methyl-4-oxo-3-((3-(trifluoromethyl)pyridin-2-yl)methyl)-3,4-dihydroquinazolin-5-yl)-4-hydroxybenzamide] | ≤ 100 nM |
| Cc1nc2c(F)ccc(NC(=O)c3cc(Cl)c(O)c(Cl)n3)c2c(=O)n1Cc1ncccc1C(F)(F)F [Example 155, 4,6-dichloro-N-(8-fluoro-2-methyl-4-oxo-3-((3-(trifluoromethyl)pyridin-2-yl)methyl)-3,4-dihydroquinazolin-5-yl)-5-hydroxypicolinamide] | 100 to 500 nM |
| Cc1nc2c(Cl)ccc(NC(=O)c3cc(Cl)c(O)c(Cl)c3)c2c(=O)n1Cc1ccccc1C(F)(F)F [Example 156, 3,5-dichloro-N-(8-chloro-2-methyl-4-oxo-3-(2-(trifluoromethyl)benzyl)-3,4-dihydroquinazolin-5-yl)-4-hydroxybenzamide] | ≤ 100 nM |
| Cc1nc2c(F)ccc(NC(=O)c3cc(Cl)c(O)c(Cl)c3)c2c(=O)n1Cc1ccccc1C(F)(F)F [Example 158, 3,5-dichloro-N-(8-fluoro-2-methyl-4-oxo-3-(2-(trifluoromethyl)benzyl)-3,4-dihydroquinazolin-5-yl)-4-hydroxybenzamide] | ≤ 100 nM |
| Cc1nc2c(F)ccc(NC(=O)c3cc(Cl)c(O)c(Cl)n3)c2c(=O)n1Cc1ccccc1C(F)(F)F [Example 159, 4,6-dichloro-N-(8-fluoro-2-methyl-4-oxo-3-(2-(trifluoromethyl)benzyl)-3,4-dihydroquinazolin-5-yl)-5-hydroxypicolinamide] | 100 to 500 nM |
| Cc1ccc(NC(=O)c2cc(Cl)c(O)c(Cl)n2)c2c(=O)n(Cc3nn(C)c4ccccc34)c(C)nc12 [Example 162, 4,6-dichloro-N-(2,8-dimethyl-3-((1-methyl-1H-indazol-3-yl)methyl)-4-oxo-3,4-dihydroquinazolin-5-yl)-5-hydroxypicolinamide] | 100 to 500 nM |
| Cc1nc2c(Cl)ccc(NC(=O)c3cc(Cl)c(O)c(Cl)n3)c2c(=O)n1Cc1ncccc1C(F)(F)F [Example 165, 4,6-dichloro-N-(8-chloro-2-methyl-4-oxo-3-((3-(trifluoromethyl)pyridin-2-yl)methyl)-3,4-dihydroquinazolin-5-yl)-5-hydroxypicolinamide] | 100 to 500 nM |
| Cc1nc2c(Cl)ccc(NC(=O)c3cc(Cl)c(O)c(Cl)n3)c2c(=O)n1Cc1ccccc1C(F)(F)F [Example 170, 4,6-dichloro-N-(8-chloro-2-methyl-4-oxo-3-(2-(trifluoromethyl)benzyl)-3,4-dihydroquinazolin-5-yl)-5-hydroxypicolinamide] | 100 to 500 nM |

Other lines, results leading:

| IC50 | SMILES |
| --- | --- |
| ≤ 100 nM | Cc1ccc(NC(=O)c2cc(Cl)c(O)c(Cl)c2)c2c(=O)n(Cc3ncccc3C(F)(F)F)c(C)nc12 [Example 146, 3,5-dichloro-N-(2,8-dimethyl-4-oxo-3-((3-(trifluoromethyl)pyridin-2-yl)methyl)-3,4-dihydroquinazolin-5-yl)-4-hydroxybenzamide] |
| ≤ 100 nM | Cc1nc2c(F)ccc(NC(=O)c3cc(Cl)c(O)c(Cl)n3)c2c(=O)n1Cc1ccccc1OC(F)(F)F [Example 150, 4,6-dichloro-N-(8-fluoro-2-methyl-4-oxo-3-(2-(trifluoromethoxy)benzyl)-3,4-dihydroquinazolin-5-yl)-5-hydroxypicolinamide] |
| 100 to 500 nM | Cc1ccc(NC(=O)c2cc(Cl)c(O)c(Cl)n2)c2c(=O)n(Cc3ncccc3C(F)(F)F)c(C)nc12 [Example 153, 4,6-dichloro-N-(2,8-dimethyl-4-oxo-3-((3-(trifluoromethyl)pyridin-2-yl)methyl)-3,4-dihydroquinazolin-5-yl)-5-hydroxypicolinamide] |
| 100 to 500 nM | Cc1nc2c(F)ccc(NC(=O)c3cc(Cl)c(O)c(Cl)c3)c2c(=O)n1C(C)c1ccccc1OC(F)(F)F (centres unmarked) [Example 157, 3,5-dichloro-N-(8-fluoro-2-methyl-4-oxo-3-(1-(2-(trifluoromethoxy)phenyl)ethyl)-3,4-dihydroquinazolin-5-yl)-4-hydroxybenzamide] |
| ≤ 100 nM | Cc1ccc(NC(=O)c2cc(Cl)c(O)c(Cl)n2)c2c(=O)n(Cc3ccccc3OC(F)(F)F)c(C(F)F)nc12 [Example 160, 4,6-dichloro-N-(2-(difluoromethyl)-8-methyl-4-oxo-3-(2-(trifluoromethoxy)benzyl)-3,4-dihydroquinazolin-5-yl)-5-hydroxypicolinamide] |
| 100 to 500 nM | Cc1ccc(NC(=O)c2cc(Cl)c(O)c(Cl)n2)c2c(=O)n(Cc3ccccc3C(F)(F)F)c(C)nc12 [Example 163, 4,6-dichloro-N-(2,8-dimethyl-4-oxo-3-(2-(trifluoromethyl)benzyl)-3,4-dihydroquinazolin-5-yl)-5-hydroxypicolinamide] |
| 100 to 500 nM | Cc1ccc(NC(=O)c2cc(Cl)c(O)c(Cl)c2)c2c(=O)n(Cc3ncccc3C(F)(F)F)c(C(F)F)nc12 [Example 164, 3,5-dichloro-N-(2-(difluoromethyl)-8-methyl-4-oxo-3-((3-(trifluoromethyl)pyridin-2-yl)methyl)-3,4-dihydroquinazolin-5-yl)-4-hydroxybenzamide] |
| 100 to 500 nM | Cc1nc2c(Cl)ccc(NC(=O)c3cc(Cl)c(O)c(Cl)c3)c2c(=O)n1Cc1ncccc1C(F)(F)F [Example 166, 3,5-dichloro-N-(8-chloro-2-methyl-4-oxo-3-((3-(trifluoromethyl)pyridin-2-yl)methyl)-3,4-dihydrjoquinazolin-5-yl)-4-hydroxybenzamide] |
| ≤ 100 nM | Cc1ccc(NC(=O)c2cc(Cl)c(O)c(Cl)c2)c2c(=O)n(Cc3ccccc3C(F)(F)F)c(C(F)F)nc12 [Example 167, 3,5-dichloro-N-(2-(difluoromethyl)-8-methyl-4-oxo-3-(2-(trifluoromethyl)benzyl)-3,4-dihydroquinazolin-5-yl)-4-hydroxybenzamide] |
| ≤ 100 nM | Cc1nc2c(F)ccc(NC(=O)c3cc(Cl)c(O)c(Cl)c3)c2c(=O)n1Cc1ccccc1OC(F)(F)F [Example 168, 3,5-dichloro-N-(8-fluoro-2-methyl-4-oxo-3-(2-(trifluoromethoxy)benzyl)-3,4-dihydroquinazolin-5-yl)-4-hydroxybenzamide] |
| ≤ 100 nM | [2H]C([2H])([2H])c1nc2c(C)ccc(NC(=O)c3cc(Cl)c(O)c(Cl)c3)c2c(=O)n1Cc1ccccc1OC(F)(F)F [Example 169, 3,5-dichloro-4-hydroxy-N-(8-methyl-2-(methyl-d3)-4-oxo-3-(2-(trifluoromethoxy)benzyl)-3,4-dihydroquinazolin-5-yl)benzamide] |
| 100 to 500 nM | [2H]C([2H])([2H])c1nc2c(F)ccc(NC(=O)c3cc(Cl)c(O)c(Cl)c3)c2c(=O)n1Cc1ccccc1C(F)(F)F [Example 171, 3,5-dichloro-N-(8-fluoro-2-(methyl-d3)-4-oxo-3-(2-(trifluoromethyl)benzyl)-3,4-dihydroquinazolin-5-yl)-4-hydroxybenzamide] |
